Assay results published in patent US9550978B2, “Isolation and functional identification of cells” (CAPROTEC BIOANALYTICS GMBH, priority 2010, dated 2017).

Assays:
HT-1080 cells [1] = experiment: Marimastat-specific tagging of adherent cells by capture compound coated magnetic particles (Example 2a); type: cell-based, human; conditions: culture "con", with free marimastat competitor; light microscopy
Excerpt: Cell culture supernatant (10% heat inactivated fetal calf serum (PAA Laboratories GmbH), 1× Penicillin/Streptomycin (PAA) in DMEM (Dulbecco's Modified Eagle Medium) High Glucose (4.5 g/l) with stable glutamin (PAA)) was removed from two cell cultures of adherent fibrosarcoma cells (cell line HT-1080 (ACC 315 Deutsche Sammlung von Mikroorganismen and Zellkulturen DSMZ Braunschweig; densely grown; 3.5 cm petri dish; passage 9) and added to further cell culture supernatant from a larger culture. The petri dish was closed to avoid drying of the cells.
20 μl 10 mg/ml strepatavidin coated magnetic particles of 1 μm diameter (Dynabeads MyOne Steptavidin C1 (Dynal)) (streptavidin magnetic particles or particles in the following) were mixed with 10 μl 100 μM marimastat capture compound V (caprotec bioanalytics GmbH)
[drawing 4] and incubated 10 min at room temperature. The particles were collected at the inner vial wall by applying a strong magnet (caproMag, caprotec bioanalytics GmbH, containing a 150×9×7 mm neodymium magnet (NdFeB) of quality N52 (1.43 Tesla)), and the supernatant was discarded. The particles were resuspended in 500 μl HT-1080 cell culture supernatant, collected magnetically anew and resuspended in 200 μl water, giving a 1 mg/ml marimastat capture compound-particle suspension. […]

HT-1080 cells [2] = experiment: Method 2: cell tagging with capture compound first, then streptavidin magnetic particles (Example 2b); type: cell-based, human; conditions: culture "con", free marimastat competitor added first
Experimental: Cell culture supernatant of two cell cultures of adherent fibrosarcoma cells of cell line HT-1080 was prepared as described above (example 2a).
The cultures were spiked with 400 μl cell culture supernatant each. “Ver” received 20 μl water, control “con” received 20 μl 10 mM free marimastat (competitor), both cultures were swayed for mixing and incubated 3 min at room temperature, carefully keeping the cell layer wet at all times. During this step, the free marimastat in culture “con” binds to marimastat-binding proteins or protein complexes on the surface of cells and blocks their binding sites, preventing marimastat capture compounds from binding during the subsequent step. 2 μl 100 μmol/l marimastat capture compound was added to each culture, shaken gently and incubated 5 min at room temperature. Binding of the marimastat capture compound only happens on the cell surface proteins in culture “ver” (which are not blocked). The supernatant was removed from each, both cultures were washed with 400 μl fresh cell culture supernatant twice to remove excess marimastat capture compound, and 400 μl fresh cell culture supernatant was added each. 1 μl of 10 mg/ml strepatavidin coated magnetic particles of 1 μm diameter (Dynabeads MyOne Steptavidin C1 (Dynal)), was added to each culture, homogenized by swaying and incubated 30 min at room temperature. […]

HT-1080 cells [3] = experiment: Specific magnetic isolation of selectively tagged cells (Example 3); type: cell-based, human; conditions: control "con", free marimastat competitor
Experimental: After tagging and washing (method 2, see example 2b) the supernatant was removed from cultures “ver” and “con” and the cultures were treated with 200 μl non-enzymatic cell dissociation solution (Sigma), followed by 10 min incubation at room temperature. […] The cells were moved to two 200 μl PCR vials labelled “ver” and “con”, respectively.

HT-1080 cells [4] = experiment: Immobilization of cells from suspension on streptavidin coated multititer plates (Example 4); type: cell-based, human; conditions: mean of three samples
Experimental: HT-1080 cells (see above) were treated for 30 min in cell culture medium with calcein AM to fluorescently stain the cytosol and were provided in suspension (obtained by scraping off the adherent cells using a cell spatula) at a final concentration of ˜0.5*10^6/ml in culture medium. White blood cells (WBC) freshly obtained from a donor by lysis of erythrocytes and subsequent washing and resuspension were adjusted to a final concentration of ˜5*10^6/ml in phosphate buffered saline (PBS). 12-well multititer plates (streptavidin coated) were used for cell immobilization.
Samples of HT-1080 cells to be used as controls were treated with adjusted to 50 μmol/l free marimastat in medium by adding a stock solution (10 mM) of the competitor (samples marked “C”). Non-competitor verum samples are marked “A”.
Samples treated with marimastat capture compound in solution were adjusted to 0.5 μmol/l capture compound in medium from 20 μmol/l stock solution (samples labelled “ind”), or attached to the capture compound-treated streptavidin-coated surface (samples labelled “dir”).
For determining the influence on binding by activating the reactivity function by UV irradiation (samples labelled “UV”) in samples for indirect binding (first capture compound attaching to cells, then cells binding to surface), cells were irradiated for 1 min by a near UV laboratory source (λmax=310 nm, caproBox, caprotec bioanalytics GmbH, Berlin) in an uncoated well (or not for samples without UV irradiation), collected, spun down, washed, and transferred to a streptavidin-coated well (incubation time˜3 h). Samples for direct binding were brought into capture compound coated wells (prepared as described below) directly (incubation time˜3 h) and UV-irradiated therein (or not for samples without UV irradiation). For loading the streptavidin-coated microtiter plates with capture compound, the wells were rinsed repeatedly for 10 min with 10 μl of 20 μM marimastat capture compound per well in 200 μl PBS at room temperature; the supernatant was discarded and the wells were washed with PBS.
The medium over the cells bound to the surface was mainly removed (a minimum rest was left to cover the cells and not let the cells dry) and all wells were washed carefully two times with 1 ml medium. HT-1080 cells were counted by their calcein AM fluorescence using a Cellavista system. Values below are adjusted for HT-1080 cell numbers delivered onto the well (1.9*10^5).

[5] = target: T1, marimastat-binding protein on the cell surface of HT-1080 cells (Homo sapiens, UniProt P50281); experiment: Photochemical crosslink on cell surface, detection by streptavidin-horseradish peroxidase blot (Example 5a); conditions: sample "C": 0.5 mmol/l marimastat competitor, UV irradiated
T1 construct: densely grown with adherent HT-1080 cells; endogenous in cells; host or cells: HT-1080 cells (adherent, not recombinant)
Experimental: Five times three sterile petri dishes with 3.5 cm diameter were densely grown with adherent HT-1080 cells (passage 10, see example 2 for medium and conditions). The cell culture supernatant was collected and 400 μl of this supernatant was again applied onto the cells such that the cells were covered with a layer of cell culture supernatant. Three of the petri dishes were labeled, respectively, “A”, “C”, “PD”, “PDC” and “noCC”. To “A”, “PD” and “noCC” were added 20 μl ultrapure water, respectively. To “C” and “PDC” were added 20 μl 10 mmol/l marimastat, respectively (0.5 mmol/l final concentration) and homogenized by swaying. To “A”, “C”, “PD” and “PDC” were added 2 μl 100 μmol/l marimastat capture compound (0.5 μmol/l final concentration) and homogenized by swaying. After a 2 min incubation, cells with supernatant of petri dishes “A”, “C” and “noCC” (open lids) were irradiated for 1 min with UV light (λmax=310 nm, caproBox, caprotec Bioanalytics GmbH, Berlin). Cells with supernatant of petri dishes “PD” and “PDC” were not irradiated but otherwise treated the same (incubated in caproBox for 1 min without irradiation). The supernatant was collected and discarded (in a repetition experiment, this supernatant was also analyzed as described in example 5b). […]

MMP14 = target: T2, MMP14 (Homo sapiens, UniProt P50281); experiment: Capture Compound Mass Spectrometry (CCMS) identification of the marimastat-binding protein (Example 5b); conditions: excess marimastat competitor
T2 construct: densely grown with adherent HT-1080 cells; endogenous in cells; host or cells: HT-1080 cells (adherent, not recombinant)
Experimental: In a repetition of the experiment described in example 5a, the magnetic particles after the wash buffer and water wash steps (end of 5a.ii) were additionally washed six times with 200 μl 80% acetonitrile and once with 200 μl ultrapure water. The proteins captured on the particles were digested by addition of 9 μl 50 mmol/l ammonium bicarbonate and 1 μl 0.5 mg/ml trypsin (Sequencing Grade, Roche, ProdNo. 11047841001) in 1 mmol/l HCl. The particles were kept in suspension in this solution by shaking (2000 rpm) at 37° C. over night. After magnetically separating the particles, the supernatant was evaporated and the contained tryptic peptides were analyzed by nanoLC-MS/MS after dissolving them in 0.1% formic acid (equipment: Easy-nLC liquid chromatography system; Proxeon Biosystems A/S and LTQ Orbitrap Velos mass spectrometer; Thermo Scientific). The peptide and protein identification by automated sequence database search was performed on the one hand using the search algorithms SEQUEST (implemented in the Proteome Discoverer software 1.2.0.208, Thermo Scientific) and X!Tandem (The Global Proteome Machine Organization; version 2007.01.01.1, implementiert in the Scaffold software, version 3_00_03, Proteome Software Inc.) or on the other hand using MaxQuant (version 1.1.1.25, Cox, J. and Mann, M. (2008) Nat Biotechnol 26, 1367-72.) for label-free quantification of proteins. […]

SMILES: CNC(=O)[C@@H](NC(=O)[C@H](CC(C)C)[C@H](O)C(=O)NO)C(C)(C)C [marimastat]
- tagging of cells on their surface by particles after washing (HT-1080 cells [1]): not marked, or to only very little extent
- particle tagging of cells after washing (HT-1080 cells [2]): little or no particles are visible
- retention of tagged cells at vial wall by magnet (HT-1080 cells [3]): mostly sunk to the bottom of the vial
- Percent input cells recovered (HT-1080 cells [4]; C dir (no UV): direct binding, marimastat excess competitor, no UV): 14.5 (standard deviation of Percent
- Percent input cells recovered (HT-1080 cells [4]; C dir UV: direct binding, marimastat excess competitor, UV activated): 7.9 (standard deviation of Percent
- Percent input cells recovered (HT-1080 cells [4]; C ind (no UV): indirect binding, marimastat excess competitor, no UV): 1.1 (standard deviation of Percent
- Percent input cells recovered (HT-1080 cells [4]; C ind UV: indirect binding, 50 μmol/l free marimastat competitor, UV activated): 0.7 (standard deviation of Percent
- blot signal of protein photochemically crosslinked with the capture compound [5]: the signal is absent
- MMP14 capture in presence of competitor (MaxQuant analysis) (MMP14): completely suppressed
